PMC9897768, “Discovery of new 6-ureido/amidocoumarins as highly potent and selective inhibitors for the tumour-relevant carbonic anhydrases IX and XII” (Journal of Enzyme Inhibition and Medicinal Chemistry, 2023)

Columns and labels:
hCA IX = hCA IX (Homo sapiens, UniProt Q16790); test: stopped-flow CO2 hydrase assay, hCA IX; assay type: biochemical; details: incubation time 6 h, mean of three experiments
Method: (§1) The target coumarins 5a–p and 7a–c were examined for their CA inhibitory actions towards the ubiquitous CA I and II (cytosolic) as well as the tumour-associated CA IX and XII isozymes by the use of a stopped-flow CO2 hydrase assay, using acetazolamide (AZA) as a reference compound.
(§2) The experimental procedures utilised for CA inhibitory assay of the target compounds were carried out as described earlier, and presented in the Supplementary Materials.

MCF-7 cells = test: MTT antiproliferative assay, MCF-7; assay type: cell-based, human; details: mean ± SEM of three experiments; for inhibition at 10 µM / inhibition at 100 µM: Homo sapiens; for inhibition at 10 µM: MCF7, MCF7, 10 µM, read-out: % Growth inhibition MCF7 10 µM; for inhibition at 100 µM: MCF7, MCF7, 100 µM, read-out: % Growth inhibition MCF7 100 µM
Method: (§3) Encouraged by the favourable selectivity profile of ureidocoumarins 5a–p and amidocoumarins 7a–c towards hCA IX and hCA XII, they were further examined for their prospective antiproliferative activity against human colorectal (HCT-116) and breast (MCF-7) cancer cell lines, adopting the MTT assay.
(§4) The evaluation of anticancer activity of the target compounds was conducted by MTT assay adopting the literature procedure.

hCA II = hCA II (Homo sapiens, UniProt P00918); test: stopped-flow CO2 hydrase assay, hCA II; assay type: biochemical; details: incubation time 6 h, mean of three experiments
Method: as §1, §2

hCA XII = hCA XII (Homo sapiens, UniProt O43570); test: stopped-flow CO2 hydrase assay, hCA XII; assay type: biochemical; details: incubation time 6 h, mean of three experiments
hCA XII, sequence (O43570 25-354): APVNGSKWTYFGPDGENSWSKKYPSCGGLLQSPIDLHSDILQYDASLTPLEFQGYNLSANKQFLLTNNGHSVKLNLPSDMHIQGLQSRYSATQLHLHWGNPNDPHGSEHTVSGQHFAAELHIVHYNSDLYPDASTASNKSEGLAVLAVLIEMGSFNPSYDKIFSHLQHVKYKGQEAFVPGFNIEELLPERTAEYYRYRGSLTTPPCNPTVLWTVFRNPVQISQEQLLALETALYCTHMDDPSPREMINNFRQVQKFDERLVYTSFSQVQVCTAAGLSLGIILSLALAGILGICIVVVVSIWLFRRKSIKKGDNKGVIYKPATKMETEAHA
Method: as §1, §2

hCA I = hCA I (Homo sapiens, UniProt P00915); test: stopped-flow CO2 hydrase assay, hCA I; assay type: biochemical; details: incubation time 6 h, mean of three experiments
hCA I, sequence (P00915 whole entry): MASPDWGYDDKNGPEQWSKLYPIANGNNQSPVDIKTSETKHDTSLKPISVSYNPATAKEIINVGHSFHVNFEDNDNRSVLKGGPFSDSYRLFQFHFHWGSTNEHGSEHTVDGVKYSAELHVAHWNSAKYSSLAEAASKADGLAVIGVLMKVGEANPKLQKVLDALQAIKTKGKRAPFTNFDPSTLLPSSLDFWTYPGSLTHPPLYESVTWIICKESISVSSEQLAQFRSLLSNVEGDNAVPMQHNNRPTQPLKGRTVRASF
Method: as §1, §2

HCT-116 cells = test: MTT antiproliferative assay, HCT-116; assay type: cell-based, human; details: mean ± SEM of three experiments; for inhibition at 10 µM / inhibition at 100 µM: Homo sapiens; for inhibition at 10 µM: HCT-116, HCT116, 10 µM, read-out: % Growth inhibition HCT116 10 µM; for inhibition at 100 µM: HCT-116, HCT116, 100 µM, read-out: % Growth inhibition HCT116 100 µM
Method: as §3, §4

Cc1cc(C)cc(NC(=O)Nc2ccc3oc(=O)ccc3c2)c1 [Compound 5k, 1-(3,5-Dimethylphenyl)-3-(2-oxo-2H-chromen-6-yl)urea]
Ki (hCA IX): 42.9 nM | inhibition at 10 µM (MCF-7 cells): 33.2 ± 3.2% | inhibition at 100 µM (MCF-7 cells): 66.7 ± 5% | Ki (hCA II): > 100000 nM | Ki (hCA XII): 27.4 nM | melting point: 238 to 239 °C | Ki (hCA I): > 100000 nM | inhibition at 10 µM (HCT-116 cells): 14.5 ± 2.7% | inhibition at 100 µM (HCT-116 cells): 87.4 ± 1.8%

O=C(Nc1ccc(Cl)c(C(F)(F)F)c1)Nc1ccc2oc(=O)ccc2c1 [Compound 5g, 1-(4-Chloro-3-(trifluoromethyl)phenyl)-3-(2-oxo-2H-chromen-6-yl)urea]
Ki (hCA IX): 66.4 nM | inhibition at 10 µM (MCF-7 cells): 10 ± 2.4% | inhibition at 100 µM (MCF-7 cells): 92.3 ± 0.6% | Ki (hCA II): > 100000 nM | Ki (hCA XII): 29.4 nM | melting point: 253 to 255 °C | Ki (hCA I): > 100000 nM | inhibition at 10 µM (HCT-116 cells): 15.2 ± 4.4% | inhibition at 100 µM (HCT-116 cells): 90.5 ± 1.4%

O=C(Nc1ccc2oc(=O)ccc2c1)Nc1c(Br)cc(F)cc1Br [Compound 5p, 1-(2,6-Dibromo-4-fluorophenyl)-3-(2-oxo-2H-chromen-6-yl)urea]
Ki (hCA IX): 72.8 nM | inhibition at 10 µM (MCF-7 cells): 21.4 ± 3% | inhibition at 100 µM (MCF-7 cells): 79.5 ± 2.4% | Ki (hCA II): > 100000 nM | Ki (hCA XII): 50.4 nM | Ki (hCA I): > 100000 nM | inhibition at 10 µM (HCT-116 cells): 14.1 ± 3% | inhibition at 100 µM (HCT-116 cells): 75.2 ± 5.8%

O=C(Nc1ccc(Br)cc1)Nc1ccc2oc(=O)ccc2c1 [Compound 5d, 1-(4-Bromophenyl)-3-(2-oxo-2H-chromen-6-yl)urea]
Ki (hCA IX): 70.6 nM | inhibition at 10 µM (MCF-7 cells): 18.2 ± 3.2% | inhibition at 100 µM (MCF-7 cells): 18.5 ± 4.5% | Ki (hCA II): > 100000 nM | Ki (hCA XII): 51.1 nM | melting point: 257 to 258 °C | Ki (hCA I): > 100000 nM | inhibition at 10 µM (HCT-116 cells): 25.4 ± 2.7% | inhibition at 100 µM (HCT-116 cells): 31.7 ± 3.5%

O=C(Nc1ccc2oc(=O)ccc2c1)Nc1ccc(Cl)cc1Cl [Compound 5l, 1-(2,4-Dichlorophenyl)-3-(2-oxo-2H-chromen-6-yl)urea]
Ki (hCA IX): 50.6 nM | inhibition at 10 µM (MCF-7 cells): 5.9 ± 2.7% | inhibition at 100 µM (MCF-7 cells): 6.6 ± 2.5% | Ki (hCA II): > 100000 nM | Ki (hCA XII): 56.7 nM | melting point: 291 to 292 °C | Ki (hCA I): > 100000 nM | inhibition at 10 µM (HCT-116 cells): 2.6 ± 1.8% | inhibition at 100 µM (HCT-116 cells): 6.7 ± 1.7%

CCCCc1ccc(NC(=O)Nc2ccc3oc(=O)ccc3c2)cc1 [Compound 5e, 1-(4-Butylphenyl)-3-(2-oxo-2H-chromen-6-yl)urea]
Ki (hCA IX): 54.7 nM | inhibition at 10 µM (MCF-7 cells): 38.2 ± 2.5% | inhibition at 100 µM (MCF-7 cells): 46.4 ± 4.9% | Ki (hCA II): > 100000 nM | Ki (hCA XII): 95.1 nM | melting point: 223 to 224 °C | Ki (hCA I): > 100000 nM | inhibition at 10 µM (HCT-116 cells): 20.1 ± 2.5% | inhibition at 100 µM (HCT-116 cells): 65 ± 6%

O=C(Nc1cc(C(F)(F)F)cc(C(F)(F)F)c1)Nc1ccc2oc(=O)ccc2c1 [Compound 5i, 1-(3,5-Bis(trifluoromethyl)phenyl)-3-(2-oxo-2H-chromen-6-yl)urea]
Ki (hCA IX): 14.7 nM | inhibition at 10 µM (MCF-7 cells): > 50% | inhibition at 100 µM (MCF-7 cells): > 90% | % Growth inhibition MCF7 10 µM (MCF-7 cells; MCF7, 10 µM): 51.5 ± 3.1% | % Growth inhibition MCF7 100 µM (MCF-7 cells; MCF7, 100 µM): 93.9 ± 0.4% | Ki (hCA II): > 100000 nM | Ki (hCA XII): 5.9 nM | Ki (hCA I): > 100000 nM | % Growth inhibition HCT116 10 µM (HCT-116 cells; HCT116, 10 µM): 70.4 ± 2.6% | % Growth inhibition HCT116 100 µM (HCT-116 cells; HCT116, 100 µM): 94.2 ± 1.1% | inhibition at 100 µM (HCT-116 cells): > 90%

Cc1cc(Cl)ccc1NC(=O)Nc1ccc2oc(=O)ccc2c1 [Compound 5n, 1-(4-Chloro-2-methylphenyl)-3-(2-oxo-2H-chromen-6-yl)urea]
Ki (hCA IX): 28.4 nM | inhibition at 10 µM (MCF-7 cells): 16.7 ± 4.9% | inhibition at 100 µM (MCF-7 cells): 19.9 ± 1.2% | Ki (hCA II): > 100000 nM | Ki (hCA XII): 43.1 nM | Ki (hCA I): > 100000 nM | inhibition at 10 µM (HCT-116 cells): 4.9 ± 2.5% | inhibition at 100 µM (HCT-116 cells): 20.5 ± 3.5%

O=C(Nc1ccc(F)c(Cl)c1)Nc1ccc2oc(=O)ccc2c1 [Compound 5h, 1-(3-Chloro-4-fluorophenyl)-3-(2-oxo-2H-chromen-6-yl)urea]
Ki (hCA IX): 24.1 nM | inhibition at 10 µM (MCF-7 cells): 16.9 ± 5.3% | inhibition at 100 µM (MCF-7 cells): 91.2 ± 1% | Ki (hCA II): > 100000 nM | Ki (hCA XII): 10.3 nM | melting point: 232 to 233 °C | Ki (hCA I): > 100000 nM | inhibition at 10 µM (HCT-116 cells): 11.9 ± 1.5% | inhibition at 100 µM (HCT-116 cells): 92.3 ± 1.2%

O=C(Nc1cccc(C(F)(F)F)c1)Nc1ccc2oc(=O)ccc2c1 [Compound 5a, 1-(2-Oxo-2H-chromen-6-yl)-3-(3-(trifluoromethyl)phenyl)urea]
Ki (hCA IX): 45.9 nM | inhibition at 10 µM (MCF-7 cells): 3.7 ± 1.9% | inhibition at 100 µM (MCF-7 cells): 34.7 ± 4.4% | Ki (hCA II): > 100000 nM | Ki (hCA XII): 26.2 nM | melting point: 252 to 254 °C | Ki (hCA I): > 100000 nM | inhibition at 10 µM (HCT-116 cells): 8 ± 4.8% | inhibition at 100 µM (HCT-116 cells): 21.9 ± 4.6%
